Literature values as cited in patent US5418161A (The Chinese University of Hong Kong, priority 1993, dated 1995).

solubility in water: soluble
Structure (SMILES): O=C1/C(=C2\Nc3ccc(S(=O)(=O)O)cc3C2=O)Nc2ccc(S(=O)(=O)O)cc21 [indigo carmine]
